Read-outs that look alike come from different tables or passages of the source.
How the values were obtained:
PI3Kγ (p120γ) = target: T1, PI3Kγ (p120γ) (Homo sapiens, UniProt P48736); assay: Inhibition of PI3K kinase activity (ADP Glo), PI3Kγ; conditions: read-out: biochemical potency (PI3Kγ IC50)
T1 construct: purchased Promega V1761
Procedure: Compounds were evaluated to determine the potency with which they inhibited the kinase activity of the Class I PI3K subunits p110α/p85α (Promega, Cat #V1721), p110β/p85α (Promega, Cat #V1751), p120γ (Promega, Cat #V1761) and p110δ/p85α (Promega, Cat #V1771). Activity was determined as a function of ADP (adenosine diphosphate) generated from ATP consumed during the phosphorylation of Phosphatidylinositol 4,5-bisphosphate (PIP2) (Promega, Cat #V1701) to yield Phosphatidylinositol (3,4,5)-trisphosphate (PIP3). ADP levels in the assay mixture at the end of the reaction were quantitated using ADP Glo (Promega, Cat #V9103) according to the manufacturer's recommended protocol.
Enzyme was prepared for each of the PI3K subunits in 100 mM HEPES, pH 7.4, 100 mM NaCl, 6 mM MgCl2 and 0.05% BSA. p110α/p85α was prepared at 2 nM (2×), p110β/p85α was prepared at 7 nM (2×), p120γ was prepared at 8 nM (2×) and p110δ/p85α was prepared at 2 nM (2×). Five microliters of 2× enzyme dilution of each PI3K subunit were added to a 384-well white Opti-plates pre-dispensed with compound and allowed to incubate for 1 h at rt. A substrate mix containing 0.1 mg/ml (2×) of PIP2 and 50 μM (2×) ATP (Promega, Cat #V915) was prepared in 25 mM HEPES and 0.5 mM EGTA. Reactions were initiated by addition of 5 μl of 2× substrate mix to each well of the plates containing various PI3K isoforms and allowed to proceed for 60 min at rt. Ten microliters of ADP Glo reagent 1 were added to the wells of each plate and allowed to incubate at rt for 45 min according to the manufacturer's directions. Following incubation, 20 μl of ADP Glo reagent 2 was added to each plate and allowed to incubate for an additional 45 min. Luminescent signal, generated by ADP Glo, was quantified by reading on a Perkin Elmer Envision multimode reader. Compound potencies (IC50's) were determined using a standard 4-parameter fit non-linear regression fit.

PI3Kγ = target: T2, PI3Kγ (Homo sapiens, UniProt P48736); assay: PI3Kγ cellular assay in THP-1 cells (AKT pS473 AlphaLISA); type: cell-based
T2 construct: host or cells: THP-1
T2 sequence (P48736 whole entry): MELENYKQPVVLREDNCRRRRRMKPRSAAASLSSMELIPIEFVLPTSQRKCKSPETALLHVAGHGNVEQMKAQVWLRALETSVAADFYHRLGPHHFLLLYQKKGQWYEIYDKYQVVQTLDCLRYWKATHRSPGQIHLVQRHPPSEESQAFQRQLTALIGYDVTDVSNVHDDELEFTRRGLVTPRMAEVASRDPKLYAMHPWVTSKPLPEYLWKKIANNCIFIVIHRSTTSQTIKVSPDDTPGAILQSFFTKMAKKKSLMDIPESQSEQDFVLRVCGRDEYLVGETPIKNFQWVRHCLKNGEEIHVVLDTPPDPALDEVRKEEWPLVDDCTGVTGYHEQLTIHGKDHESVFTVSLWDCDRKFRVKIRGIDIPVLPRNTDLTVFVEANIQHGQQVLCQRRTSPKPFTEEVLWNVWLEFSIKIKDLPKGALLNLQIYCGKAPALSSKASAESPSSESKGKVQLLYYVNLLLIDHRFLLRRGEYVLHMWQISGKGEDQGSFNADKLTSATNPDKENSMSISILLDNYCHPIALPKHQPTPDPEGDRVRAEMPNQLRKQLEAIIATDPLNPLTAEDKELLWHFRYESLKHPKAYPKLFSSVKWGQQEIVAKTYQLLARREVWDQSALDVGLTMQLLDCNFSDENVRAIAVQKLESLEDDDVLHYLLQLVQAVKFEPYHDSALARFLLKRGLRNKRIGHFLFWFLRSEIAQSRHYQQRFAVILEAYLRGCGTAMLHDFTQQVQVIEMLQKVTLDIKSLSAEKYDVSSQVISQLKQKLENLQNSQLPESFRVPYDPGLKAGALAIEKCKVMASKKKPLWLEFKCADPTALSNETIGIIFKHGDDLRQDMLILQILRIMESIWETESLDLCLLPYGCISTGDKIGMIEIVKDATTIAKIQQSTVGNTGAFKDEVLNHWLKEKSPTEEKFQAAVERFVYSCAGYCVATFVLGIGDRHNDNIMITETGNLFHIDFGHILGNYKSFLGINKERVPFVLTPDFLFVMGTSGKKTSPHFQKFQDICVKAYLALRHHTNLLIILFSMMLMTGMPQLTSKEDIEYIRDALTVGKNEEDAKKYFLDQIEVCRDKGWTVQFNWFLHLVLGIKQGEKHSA
Procedure: Twenty microliters of serum starved THP-1 cells were added to the compound plate in serum free DMEM at a density of 9×10^6 cells per ml. Final assay conditions comprised 1.8×10^5 THP-1 cells per well with test compounds in 2% DMSO across a concentration range from 4 nM to 30 μM. […] Briefly, 10 μL of 4× lysis buffer was added to cells after stimulation. Following 60 min incubation at rt, 10 μL of cell lysate was transferred to a fresh 384-well Opti-plate to which 5 μL of AlphaLisa acceptor beads and 5 μL of AlphaLisa donor beads had been added. […] PI3Kγ activity was evaluated as a correlate of endogenous AKT phosphorylation levels. Percentage maximum activity in each test well was calculated based on DMSO (100% activity) and positive control treated cell wells (0% activity). The potencies (IC50's) of test compounds were determined using a standard 4-parameter fit non-linear regression fit.

[1] = Table 1, rhMCP-1 stimulated AKT pS473, read-out: cellular potency (PI3Kγ IC50)
[2] = Table 2, rhMCP-1 stimulated AKT pS473, read-out: cellular potency (PI3Kγ IC50)
[3] = Table 3, rhMCP-1 stimulated AKT pS473, read-out: cellular potency (PI3Kγ IC50)
[4] = AKT pS473, read-out: cellular potency (PI3Kγ IC50)

T1 sequence (P48736 whole entry): as above

SMILES | IC50 (PI3Kγ (p120γ); Table 1, p120γ) | IC50 (PI3Kγ; [1]) | IC50 (PI3Kγ (p120γ); Table 2, p120γ) | IC50 (PI3Kγ; [2]) | also measured
CO[C@H]1C[C@H](NC(=O)c2c(N)nn3ccc(-c4cc5c(c(NS(C)(=O)=O)c4)C(=O)N([C@@H](C)C4CC4)C5)nc23)C1 [Example 84, 2-Amino-5-{2-[(1S)-1-cyclopropylethyl]-7-methanesulfonamido-1-oxo-2,3-dihydro-1H-isoindol-5-yl}-N-[trans-3-methoxycyclobutyl]pyrazolo[1,5-a]pyrimidine-3-carboxamide] | < 100 nM | < 100 nM |  |  | 
Cc1cc(-c2ccn3nc(N)c(C(=O)N4CCOCC4)c3n2)cc2c1C(=O)N(C(C)C1CC1)C2 (centres unmarked) [Example 280] |  |  | < 100 nM | > 1000 nM | 
COc1cncc(NC(=O)c2c(N)nn3ccc(-c4cc5c(c(C(F)(F)F)c4)C(=O)N([C@@H](C)C4CC4)C5)nc23)c1 [Example 355] |  |  |  |  | IC50 (PI3Kγ (p120γ); Table 3, p120γ): < 100 nM; IC50 (PI3Kγ; [3]): 100 to 1000 nM
Cc1cc(-c2ccn3nc(N)c(C(=O)N[C@H]4C[C@H](CO)C4)c3n2)cc2c1C(=O)N([C@@H](C)C1CC1)C2 [Example 12, 2-Amino-5-{2-[(1S)-1-cyclopropylethyl]-7-methyl-1-oxo-2,3-dihydro-1H-isoindol-5-yl}-N-[trans-3-(hydroxymethyl)cyclobutyl]pyrazolo[1,5-a]pyrimidine-3-carboxamide] | < 100 nM | < 100 nM |  |  | 
C[C@@H](C1CC1)N1Cc2cc(-c3ccn4nc(N)c(C(=O)NCCO)c4n3)cc(NS(C)(=O)=O)c2C1=O [Example 383] |  |  |  |  | IC50 (PI3Kγ (p120γ)): < 100 nM; IC50 (PI3Kγ; [4]): 100 to 1000 nM
C[C@@H](C1CC1)N1Cc2cc(-c3ccn4nc(N)c(C(=O)Nc5cccc(C(C)(C)O)c5)c4n3)cc(OC(F)(F)F)c2C1=O [Example 420] |  |  |  |  | IC50 (PI3Kγ (p120γ); Table 6, p120γ): < 100 nM; IC50 (PI3Kγ; Table 6, rhMCP-1 stimulated AKT pS473, read-out: cellular potency (PI3Kγ IC50)): 100 to 1000 nM
Cc1cc(-c2ccn3nc(N)c(C(=O)NC4CC45CC5)c3n2)cc2c1C(=O)N([C@@H](C)C1CC1)C2 (some centres unmarked) [Example 277] |  |  | < 100 nM | 100 to 1000 nM | 
C[C@@H](C1CC1)N1Cc2cc(-c3ccn4nc(N)c(C(=O)NC5CC56CC6)c4n3)cc(NS(C)(=O)=O)c2C1=O (stereo partly drawn) [Example 77, 2-[(S)-1-Cyclopropylethyl]-5-(2-amino-3-{(1-spiro[2.2]pentylamino)carbonyl}-1,4,7a-triaza-5-indenyl)-7-(methylsulfonylamino)-1-isoindolinone] | < 100 nM | < 100 nM |  |  | 
C[C@@H](C1CC1)N1Cc2cc(-c3ccn4nc(N)c(C(=O)NC5CC5)c4n3)cc(O[C@H]3CC[C@H](O)CC3)c2C1=O [Example 149, 2-Amino-N-cyclopropyl-5-{2-[(1S)-1-cyclopropylethyl]-1-oxo-7-{[(1R,4R)-4-hydroxycyclohexyl]oxy}-2,3-dihydro-1H-isoindol-5-yl}pyrazolo[1,5-a]pyrimidine-3-carboxamide] | < 100 nM | < 100 nM |  |  | 
Cc1cc(-c2ccn3nc(N)c(C(=O)NC4CC4)c3n2)cc2c1C(=O)N([C@@H](CO)C1CC1)C2 [Example 311] |  |  | < 100 nM | 100 to 1000 nM | 
C[C@@H](C1CC1)N1Cc2cc(-c3ccn4nc(N)c(C(=O)NCCO)c4n3)cc(C(F)(F)F)c2C1=O [Example 51, 2-[(S)-1-Cyclopropylethyl]-5-{2-amino-3-[(2-hydroxyethylamino)carbonyl]-1,4,7a-triaza-5-indenyl}-7-(trifluoromethyl)-1-isoindolinone] | < 100 nM | < 100 nM |  |  | 
C[C@@H](C1CC1)N1Cc2cc(-c3ccn4nc(N)c(C(=O)NCCS(C)(=O)=O)c4n3)cc(C(F)(F)F)c2C1=O [Example 337] |  |  |  |  | IC50 (PI3Kγ (p120γ); Table 3, p120γ): < 100 nM; IC50 (PI3Kγ; [3]): 100 to 1000 nM
CS(=O)(=O)Nc1cc(-c2ccn3nc(N)c(C(=O)NC4CC4)c3n2)cc2c1C(=O)N([C@H](C1CC1)C(F)(F)F)C2 [Example 129, 2-Amino-N-cyclopropyl-5-{2-[(1R)-1-cyclopropyl-2,2,2-trifluoroethyl]-7-methanesulfonamido-1-oxo-2,3-dihydro-1H-isoindol-5-yl}pyrazolo[1,5-a]pyrimidine-3-carboxamide] | < 100 nM | < 100 nM |  |  | 
Cc1cc(-c2ccn3nc(N)c(C(=O)NCc4ccn(C)n4)c3n2)cc2c1C(=O)N([C@@H](C)C1CC1)C2 [Example 207] |  |  | < 100 nM | 100 to 1000 nM | 
Cc1cc(-c2ccn3nc(N)c(C(=O)N[C@H]4CC[C@H](C(=O)O)CC4)c3n2)cc2c1C(=O)N([C@@H](C)C1CC1)C2 [Example 187] |  |  | < 100 nM | 100 to 1000 nM | 
Cc1cc(-c2ccn3nc(N)c(C(=O)NC4CC4(C)C)c3n2)cc2c1C(=O)N([C@@H](C)C1CC1)C2 (some centres unmarked) [Example 249] |  |  | < 100 nM | 100 to 1000 nM | 
Cc1cc(-c2ccn3nc(N)c(C(=O)NC4(C)CC4)c3n2)cc2c1C(=O)N([C@@H](C)C1CC1)C2 [Example 242] |  |  | < 100 nM | 100 to 1000 nM | 
C[C@@H](C1CC1)N1Cc2cc(-c3ccn4nc(N)c(C(=O)NC5CC5)c4n3)cc(OC(F)F)c2C1=O [Example 158, 2-Amino-N-cyclopropyl-5-{2-[(1S)-1-cyclopropylethyl]-7-(difluoromethoxy)-1-oxo-2,3-dihydro-1H-isoindol-5-yl}pyrazolo[1,5-a]pyrimidine-3-carboxamide] | < 100 nM | < 100 nM |  |  | 
Cc1ccccc1NC(=O)c1c(N)nn2ccc(-c3cc4c(c(NS(C)(=O)=O)c3)C(=O)N([C@@H](C)C3CC3)C4)nc12 [Example 391] |  |  |  |  | IC50 (PI3Kγ (p120γ)): < 100 nM; IC50 (PI3Kγ; [4]): 100 to 1000 nM
C[C@@H](C1CC1)N1Cc2cc(-c3ccn4nc(N)c(C(=O)NC5CC5)c4n3)cc(S(=O)(=O)CC3CC3)c2C1=O [Example 135, 2-Amino-N-cyclopropyl-5-{2-[(1S)-1-cyclopropylethyl]-7-cyclopropylmethanesulfonyl-1-oxo-2,3-dihydro-1H-isoindol-5-yl}pyrazolo[1,5-a]pyrimidine-3-carboxamide] | < 100 nM | < 100 nM |  |  | 
Cc1cc(-c2ccn3nc(N)c(C(=O)NC4CC(F)(F)C4)c3n2)cc2c1C(=O)N([C@@H](C)C1CC1)C2 [Example 258] |  |  | < 100 nM | 100 to 1000 nM | 
CC[C@H](N1Cc2cc(-c3ccn4nc(N)c(C(=O)NC5CC5)c4n3)cc(NS(C)(=O)=O)c2C1=O)C(F)(F)F [Example 124, 2-Amino-N-cyclopropyl-5-{7-methanesulfonamido-1-oxo-2-[(2S)-1,1,1-trifluorobutan-2-yl]-2,3-dihydro-1H-isoindol-5-yl}pyrazolo[1,5-a]pyrimidine-3-carboxamide] | < 100 nM | < 100 nM |  |  | 
C[C@@H](C1CC1)N1Cc2cc(-c3ccn4nc(N)c(C(=O)N[C@H]5C[C@@](C)(O)C5)c4n3)cc(OC(F)(F)F)c2C1=O [Example 23, 2-Amino-5-{2-[(1S)-1-cyclopropylethyl]-1-oxo-7-(trifluoromethoxy)-2,3-dihydro-1H-isoindol-5-yl}-N-[cis-3-hydroxy-3-methylcyclobutyl]pyrazolo[1,5-a]pyrimidine-3-carboxamide] | < 100 nM | < 100 nM |  |  | 
Cc1cc(-c2ccn3nc(N)c(C(=O)N[C@@H](CO)c4ccccc4)c3n2)cc2c1C(=O)N([C@@H](C)C1CC1)C2 [Example 192] |  |  | < 100 nM | 100 to 1000 nM | 
C[C@H](CO)NC(=O)c1c(N)nn2ccc(-c3cc(Cl)c4c(c3)CN([C@@H](C)C3CC3)C4=O)nc12 [Example 163, 2-Amino-5-{7-chloro-2-[(1S)-1-cyclopropylethyl]-1-oxo-2,3-dihydro-1H-isoindol-5-yl}-N-[(2R)-1-hydroxypropan-2-yl]pyrazolo[1,5-a]pyrimidine-3-carboxamide] | < 100 nM | < 100 nM |  |  | 

— US20230024302A1, “2,3,5-TRISUBSTITUTED PYRAZOLO[1,5-A]PYRIMIDINE COMPOUNDS” (Arcus Biosciences, Inc., priority 2019, published 2023)
